In patent US20090176773A1, “Non-Peptidic Inhibitors of AKAP/PKA Interaction” (FORSCHUNGSVERBUND BERLIN E.V., priority 2005, published 2009):
Entries after “also recorded” stand apart in the source; their conditions may differ. Read-outs that look alike come from different tables or passages of the source.

Assays:
[1] = system: vasopressin (AVP)-dependent redistribution of the aquaporin-2 (AQP2) water channel in renal principal cells (IMCD cells); assay: AVP-induced redistribution of AQP2 in primarily cultured IMCD cells (immunofluorescence, laser scanning microscope); type: cell-based, rat; conditions: FIG. 18 and 21
Experimental: Initially, collecting duct cells from the inner medulla of rat kidneys (IMCD cells) can be stimulated with AVP in the presence or absence of the substances so as to stimulate AQP2 translocation. Thereafter, immunofluorescence staining can be performed, wherein the cells—following incubation—are fixed and made permeable. Using antibodies coupled to fluorescent dyes, the intracellular localization of AQP2 can subsequently be determined under a fluorescence microscope. In this way it is possible to investigate the influence of the substances on the presumably AKAP18delta-dependent translocation of AQP2.
Inhibition of the vasopressin (AVP)-dependent redistribution of the aquaporin-2 (AQP2) water channel in renal principal cells by the substances specified (see Table B; concentrations of inhibitors in μM). Primarily cultured principal cells from the inner medulla of rat kidneys (IMCD cells) represent a model for the AVP-induced translocation of AQP2. Said redistribution is the molecular basis of AVP-induced water reabsorption in the kidneys. AQP2 was detected by means of a specific antiserum and Cy3-labelled secondary antibodies in untreated cells (control) and in cells treated with AVP or substances, using a laser scanning microscope (Tamma et al., 2003; Henn et al., 2004).
Effect of the low-molecular weight substances 18882, 990 and 990 derivatives SM61 and SM65 on AVP-induced redistribution of AQP2 in IMCD cells (see FIG. 18). The structures and chemical properties of the substances are illustrated in Tables A, B and C (concentrations of inhibitors in μM). AQP2 was detected by means of a specific antiserum and Cy3-labelled secondary antibodies in untreated cells (control) and in cells treated with AVP or substances, using a laser scanning microscope (Tamma et al., 2003; Henn et al., 2004). […] In contrast, the substances 18882 and the 990 derivative SM65 have no influence on AVP-induced AQP2 redistribution at the concentrations used.

[2] = biological target: AKAP18delta-RIIalpha interaction (GST-AKAP18delta binding to plate-bound PKA-RIIalpha) (Rattus norvegicus, UniProt P12368+Q6JP77); assay: ELISA for quantitative detection of protein-protein binding between PKA-RIIalpha and GST-AKAP18delta (library screening, validation, IC50); conditions: for Concentration dependence of the inhibitory effect in validation (dilution series): FIG. 15, 50 nM GST-AKAP18delta
AKAP18delta-RIIalpha interaction (GST-AKAP18delta binding to plate-bound PKA-RIIalpha) (Rattus norvegicus, UniProt P12368+Q6JP77), sequence (P12368 2-401): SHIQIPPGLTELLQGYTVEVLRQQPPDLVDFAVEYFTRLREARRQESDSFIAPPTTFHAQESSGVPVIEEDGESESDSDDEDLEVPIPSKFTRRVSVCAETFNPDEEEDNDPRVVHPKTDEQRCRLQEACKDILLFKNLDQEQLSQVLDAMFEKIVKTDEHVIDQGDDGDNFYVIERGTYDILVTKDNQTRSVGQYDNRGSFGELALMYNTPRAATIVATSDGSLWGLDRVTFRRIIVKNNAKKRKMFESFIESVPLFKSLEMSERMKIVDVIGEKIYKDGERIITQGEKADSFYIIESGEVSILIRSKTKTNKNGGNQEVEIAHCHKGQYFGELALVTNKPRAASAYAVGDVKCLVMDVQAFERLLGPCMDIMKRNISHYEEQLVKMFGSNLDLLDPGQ
AKAP18delta-RIIalpha interaction (GST-AKAP18delta binding to plate-bound PKA-RIIalpha) (Rattus norvegicus, UniProt P12368+Q6JP77), sequence (Q6JP77 whole entry): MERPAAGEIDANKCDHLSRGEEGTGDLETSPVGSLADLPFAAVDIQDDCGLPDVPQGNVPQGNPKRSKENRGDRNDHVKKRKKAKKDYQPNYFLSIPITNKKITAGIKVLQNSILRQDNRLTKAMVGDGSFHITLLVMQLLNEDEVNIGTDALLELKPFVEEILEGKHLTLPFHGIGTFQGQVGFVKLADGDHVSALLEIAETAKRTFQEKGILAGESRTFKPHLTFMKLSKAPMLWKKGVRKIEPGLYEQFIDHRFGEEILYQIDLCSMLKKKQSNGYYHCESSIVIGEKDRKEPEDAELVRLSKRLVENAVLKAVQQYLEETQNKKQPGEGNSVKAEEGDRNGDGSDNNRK
Text: (§1) ELISA is a method wherein an antigen is detected with a specific antibody. Detection proceeds via an enzyme linked covalently with one of the binding partners, which enzyme catalyzes chromogen conversion.
(§2) Because one of the two binding partners is immobilized, removal of unbound antibodies or antigens is very easy. Detection proceeds via observing the intensity (I) of chemiluminescence using a photomultiplier in a special reading device (ELISA reader). The output of the measured values is in relative light units (RLU).
(§3) In the present case, the point was to investigate whether binding of one protein (PKA) to another (AKAP18delta-GST) would be inhibited by the presence of small organic molecules. A sandwich ELISA was therefore developed wherein the RIIalpha PKA subunit, to which AKAP proteins bind, was bound on 384-well microtiter plates (MTP).
(§4) The white color improves detection by reflection of the chemiluminescence being formed and simultaneously prevents illumination of neighboring wells. Free binding sites were blocked after binding (see below), and the second GST-AKAP18delta protein was added to […]. Subsequently, bound GST-AKAP18delta was quantified via antibodies and chemiluminescence. The principle of ELISA is illustrated in FIG. 4.
(§5) PBS (phosphate-buffered saline, pH 7.4) was used as buffer system to maintain a physiological pH value for the proteins used. The buffer was added with a mix of protease inhibitors and PMSF as non-specific protease inhibitor to delay protein degradation. In addition, DTT was employed to protect the proteins from oxidation.
(§6) The blocking solution additionally included 0.3% skim milk powder to saturate MTP non-specific binding sites with milk proteins included therein.
(§7) To adapt the binding curves to the measured values (see results), the one-site binding model was used as a basis, which model applies to binding of GST-AKAP18delta to RIIalpha. The corresponding formula is
(§8) The measured values for IC50 calculation were adapted to the one-site competition model. It was established that the bottom asymptote should be greater than 0.0 to rule out faulty adaptations with negative binding values. The formula used is
(§9) The FMP20000 substance library was used for screening, i.e., systematic, partially automated search for potential inhibitors of AKAP18delta-RIIalpha binding. […] The substances of the library had been selected according to specific criteria which also apply to previously known pharmacological active substances. Said criteria also include Lipinski's Rule (cf. discussion). To prepare an MTP for screening, each of 380 wells was filled with 20 μl of RIIalpha solution with a concentration of 0.75 ng/μl (in binding buffer), using an electronically controlled 24-channel pipette (Eppendorf). […] Following centrifugation of the MTPs (1 min at 2500×g), the MTPs were incubated at room temperature for at least 1 h. After removing the protein solution by tapping on a paper stack, non-specific binding sites were blocked with 100 μl of blocking solution/well for at least 1 h at room temperature.
(§10) After completion of the washing operation, solution residues possibly still present were tapped off on a paper stack.
(§11) In the next step, the MTPs were prepared for automated pipetting of the low-molecular weight substances. Each well was supplied with 10 μl of blocking solution or controls pipetted in accordance with the pipetting scheme (Table 1.2). […] The plates were briefly centrifuged.
(§12) Each of the control columns 1 and 24 received 0.5 μl of DMSO, so that the controls were added with the same amount of DMSO as the other samples.
(§13) Following centrifugation of the screening MTPs, AKAP18delta-GST (8 ng/μl in blocking solution) was added in accordance with the pipetting scheme (Table 2.2), centrifuged, and incubated for at least 30 min at room temperature.

[3] = biological target: T1, AKAP18delta-RIIalpha interaction (GST-AKAP18delta binding to plate-bound PKA-RIIalpha) (UniProt P13861+Q6JP77); assay: as above; conditions: increasing peptide concentrations, FIG. 11
T1 construct: made in house; host or cells: E. coli BL21(DE3), pGEX-4T3 vector (GST-AKAP18delta only)
T1 sequence (Q6JP77 whole entry): as above
T1 sequence (P13861 whole entry): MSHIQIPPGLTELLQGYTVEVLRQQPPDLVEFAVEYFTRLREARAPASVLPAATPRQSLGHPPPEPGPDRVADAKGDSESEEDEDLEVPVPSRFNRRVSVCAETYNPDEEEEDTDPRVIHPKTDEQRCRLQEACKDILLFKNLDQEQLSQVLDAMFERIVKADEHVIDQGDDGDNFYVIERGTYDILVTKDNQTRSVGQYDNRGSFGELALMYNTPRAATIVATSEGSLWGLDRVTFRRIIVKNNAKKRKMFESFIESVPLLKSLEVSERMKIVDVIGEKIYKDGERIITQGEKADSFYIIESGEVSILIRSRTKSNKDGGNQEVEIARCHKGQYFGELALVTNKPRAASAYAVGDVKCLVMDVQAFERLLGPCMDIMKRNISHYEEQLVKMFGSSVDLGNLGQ
Text: as §1, §2, §3, §4, §5, §6, §7, §8, §9, §10, §11, §12, §13

With C/N=C(/NC1=NCCS1)SCc1cccc2ccccc12 [SM65] the “Effect on AVP-induced redistribution of AQP2” value [1] was “no influence”, the “Ratio IC50 (comp./990) in Screening no. 2” value [2] was 0.14 and the “Ratio IC50 (comp./990) in Screening no. 3” value [2] was 0.39.

In the case of CNC(=S)NCc1cccc2ccccc12 [SM57], the “Ratio IC50 (comp./990) in Screening no. 2” value [2] is reported as 4.16.

For S=C(NCc1cccc2ccccc12)NC1CCCCC1 [SM59], the “Ratio IC50 (comp./990) in Screening no. 2” value [2] was 343.88.

For CCNC(=N)SCc1cccc2ccccc12 [SM54], the “Ratio IC50 (comp./990) in Screening no. 2” value [2] was 6.43.

C/N=C(/NC(C)c1ccccc1)SCc1ccc2ccccc2c1 (centres unmarked) [SM70] was tested, and the “Ratio IC50 (comp./990) in Screening no. 2” value [2] was 79.84.

For S=C(NCCN1CCCCC1)NCc1cccc2ccccc12 [SM56], the “Ratio IC50 (comp./990) in Screening no. 2” value [2] was 592.04.

In the case of CC(C)(C)/N=C(\NCc1ccccc1)SCc1cccc2ccccc12 [JG20], the “Ratio IC50 (comp./990) in Screening no. 3” value [2] is reported as 0.74.

CN/C(=N\c1cccc2cc3ccccc3cc12)SCc1cccc2ccccc12 [JG31] was tested, and the “Ratio IC50 (comp./990) in Screening no. 3” value [2] was 8.29.

In the case of c1ccc2c(C/N=C(\NC3CCCCC3)SCc3cccc4ccccc34)cccc2c1 [SM63], the “Ratio IC50 (comp./990) in Screening no. 2” value [2] is reported as 0.55 and the “Ratio IC50 (comp./990) in Screening no. 3” value [2] is reported as 1.13.

With C/N=C(/NC(C)c1ccccc1)SCc1cccc2ccccc12 (centres unmarked) [SM69] the “Ratio IC50 (comp./990) in Screening no. 2” value [2] was 1.76.

For C/N=C(\NCc1cccc2ccccc12)SCc1cccc2ccccc12 [JG23], the “IC50 in Screening no. 3” value ([2]; Table C, screening no. 3) was “bad”.

In the case of c1ccc2c(CN/C(=N\C3CCCCC3)SCc3cccc4ccccc34)cccc2c1 [JG25], the “Ratio IC50 (comp./990) in Screening no. 3” value [2] is reported as 0.26.

For N=C(NCc1ccccc1)SCc1cccc2ccccc12 [SM53], the “Ratio IC50 (comp./990) in Screening no. 2” value [2] was 3.20 and the “Ratio IC50 (comp./990) in Screening no. 3” value [2] was 1.13.

For CC(C)C[C@H](NC(=O)[C@H](CCCNC(=N)N)NC(=O)[C@@H](NC(=O)[C@H](CC(C)C)NC(=O)[C@H](CCC(=O)O)NC(=O)[C@H](C)NC(=O)[C@H](CC(=O)O)NC(=O)[C@H](CCC(=O)O)NC(=O)[C@@H]1CCCN1)C(C)C)C(=O)N[C@@H](CO)C(=O)N[C@@H](CCCCN)C(=O)N[C@@H](CCCNC(=N)N)C(=O)N[C@@H](CC(C)C)C(=O)N[C@H](C(=O)N[C@@H](CCC(=O)O)C(=O)N[C@@H](CC(N)=O)C(=O)N[C@@H](C)C(=O)N[C@H](C(=O)N[C@@H](CCC(=O)O)C(=O)N[C@@H](CCCCN)C(=O)N[C@@H](C)C(=O)N[C@H](C(=O)N[C@@H](CCC(N)=O)C(=O)N[C@@H](CCC(N)=O)C(=O)N[C@@H](Cc1ccc(O)cc1)C(N)=O)C(C)C)C(C)C)C(C)C [Compound L314E, reference compound], the “Inhibition of GST-AKAP18delta binding to RIIalpha by peptides” value [3] was “stronger inhibition of binding; also recorded: competitive inhibition of binding” and the “Concentration dependence of the inhibitory effect in validation (dilution series)” value [2] was “inhibition of binding in a concentration-dependent fashion”.

With N=C(N)NCc1cccc2ccccc12 [SM51] the “Ratio IC50 (comp./990) in Screening no. 2” value [2] was 88.35.

For S=C(NCCN1CCCCC1)Nc1cccc2ccccc12 [SM52], the “Ratio IC50 (comp./990) in Screening no. 2” value [2] was 962.65.

For C/N=C(/NCc1ccccc1)SCc1cccc2ccccc12 [SM71], the “Ratio IC50 (comp./990) in Screening no. 2” value [2] was 0.41 and the “Ratio IC50 (comp./990) in Screening no. 3” value [2] was 0.45.

With CC(C)/N=C(\NCc1cccc2ccccc12)SCc1cccc2ccccc12 [JG26] the “Ratio IC50 (comp./990) in Screening no. 3” value [2] was 0.87.

For C/N=C(/NC1=NCCS1)SCc1ccc2ccccc2c1 [SM66], the “Ratio IC50 (comp./990) in Screening no. 2” value [2] was 30.29.

c1ccc(C/N=C(\NCc2cccc3ccccc23)SCc2cccc3ccccc23)cc1 [JG28] was tested, and the “Ratio IC50 (comp./990) in Screening no. 3” value [2] was 0.39.

With C/N=C(/NCc1ccccc1)SCc1ccc2ccccc2c1 [SM72] the “Ratio IC50 (comp./990) in Screening no. 2” value [2] was 55.39.

For CCNC(=S)NCc1cccc2ccccc12 [SM58], the “Ratio IC50 (comp./990) in Screening no. 2” value ([2]; Table C, screening no. 2, relative to substance 990) was 986.12.

With COc1ccc(CSC(=N)N)cc1Br [Compound 2348] the “Concentration dependence of the inhibitory effect in validation (dilution series)” value [2] was “non-active”.

With CN/C(=N\Cc1cccc2ccccc12)SCc1cccc2ccccc12 [SM61] the “Effect on AVP-induced redistribution of AQP2” value [1] was “inhibits the AVP-induced redistribution of AQP2”, the “Ratio IC50 (comp./990) in Screening no. 2” value [2] was 0.16 and the “Ratio IC50 (comp./990) in Screening no. 3” value [2] was 0.32.

For CC(C)(C)/N=C(\NC1=NCCS1)SCc1cccc2ccccc12 [JG21], the “Ratio IC50 (comp./990) in Screening no. 3” value [2] was 1.97.

For C/N=C(/NC)SCc1cccc2ccccc12 [SM25], the “Ratio IC50 (comp./990) in Screening no. 1” value [2] was 0.97, the “Ratio IC50 (comp./990) in Screening no. 2” value [2] was 1.55 and the “Ratio IC50 (comp./990) in Screening no. 3” value [2] was 0.68.

For N=C(NN)SCc1cccc2ccccc12 [SM55], the “Ratio IC50 (comp./990) in Screening no. 2” value [2] was 2.45.

For CC(C)(C)/N=C(\NCc1cccc2ccccc12)SCc1cccc2ccccc12 [JG27], the “Ratio IC50 (comp./990) in Screening no. 3” value [2] was 1.03.

C/N=C(/NCCCc1ccccc1)SCc1cccc2ccccc12 [SM67] was tested, and the “Ratio IC50 (comp./990) in Screening no. 2” value [2] was 0.51 and the “Ratio IC50 (comp./990) in Screening no. 3” value [2] was 1.10.

With C/N=C(/NCCCc1ccccc1)SCc1ccc2ccccc2c1 [SM68] the “Ratio IC50 (comp./990) in Screening no. 2” value [2] was 86.51.
